From paper PMC12040169 (PLOS Biology, 2025)

Assay: in vitro
Conditions: human, hela cells, % viability

SMILES | viability at 28.5 h, 10 µM [%] | viability at 28.5 h, 10 µM (bulk resorufin, single well) [%]
O=C(CNC(=O)c1ccc(Br)cc1)NC1CCCC1 [CBK269591] | 90.3 | –
COc1ccc(OCC(=O)Nc2cc3oc4ccccc4c3cc2OC)cc1 [CBK262608] | 88.5 | –
O=C(CC1S/C(=N/N=C/c2cn(Cc3ccccc3)c3ccccc23)NC1=O)Nc1ccccc1 (centres unmarked) [CBK264529] | 84 | –
NC(=O)COc1ccc(C2CC(=O)Nc3c(-c4cccc(F)c4)csc32)cc1 (centres unmarked) [CBK294441] | 99.6 | –
FC(F)(F)Oc1ccc(-c2c[nH]c([C@@H]3COCCN3Cc3c[nH]cn3)n2)cc1 [CBK289303] | 111 | –
O=C(O)CCC(=O)c1c[nH]c2ccccc12 [CBK261275] | 110 | –
Cn1cc(N2CCC(NC(=O)c3ccc(C#N)cc3)C2=O)cn1 (centres unmarked) [CBK305182] | 94 | –
Cc1ccc(C2(CN3CCN(Cc4cncn4C)CC3)CC2)cc1 [CBK283308] | 107 | –
Cc1cc(C)cc(NC(=O)c2ccccc2NS(=O)(=O)c2ccc(F)c(F)c2F)c1 [CBK113886] | 89.1 | –
COc1ccccc1CCNCc1ccc(Br)cc1 [CBK015036G] | – | 96.2
O=C(O)/C(O)=C/C(=O)c1ccc(Cl)cc1 [CBK261841] | 111 | –
O=C(CN1CCOCC1)N1CCC(c2cccc(Cc3ccc(C(F)(F)F)cc3)n2)CC1 [CBK286508] | 101 | –
CC(C)C(=O)NCCn1nc(-c2ccccc2F)cc1CN(C)C [CBK281693] | 91.4 | –
c1ccc2c(-c3ccc(OC4CCNCC4)cc3)cncc2c1 [CBK126578] | 112 | –
CSCc1nc2ccccc2n1CC(=O)N(CCC#N)Cc1ccco1 [CBK305440] | 97.7 | –
CC(=O)Nc1cc(C(=O)NCc2ccc(F)cc2)ccc1Sc1ccc(Cl)cc1 [CBK294468] | 96.2 | –
CC1CCCN(c2nc3cc(C(=O)O)sc3[nH]2)C1 (centres unmarked) [CBK287159] | 88.8 | –
COc1cccc(/C=N/N2C(=O)c3ccc([N+](=O)[O-])cc3NC2c2cccc(OC)c2O)c1O (centres unmarked) [CBK074439] | 91.3 | –
CC(=O)Nc1ccc(N/C=C(/C#N)c2nc(-c3ccc([N+](=O)[O-])cc3)cs2)cc1 [CBK262377] | 106 | –
O=C(C1CC=CCC1)N1CCC(c2[nH]ncc2-c2ccncc2)CC1 (centres unmarked) [CBK284212] | 84 | –
Cn1ccnc1C1(O)CCN(C(=O)c2ccc(F)cc2)CC1 [CBK283541] | 91.5 | –
OC(CN1CCC(O)(c2cccc(C(F)(F)F)c2)CC1)c1ccccc1 (centres unmarked) [CBK286324] | 109 | –
COc1cccc(CN2CCCC(c3nc(C)n4ccccc34)C2)c1 (centres unmarked) [CBK282989] | 101 | –

SMILES | viability at 28.5 h, 10 µM [%] | viability at 28.5 h, 10 µM (bulk resorufin, single well) [%]
CSc1nc(O)c(C(c2ccc(C(=O)O)cc2)c2c(O)nc(SC)nc2O)c(O)n1 [CBK265288] | 94.8 | –
C/C(=N\NC(=O)c1ccc(CN2CCOCC2)cc1)c1ccc2c(c1)OCCO2 [CBK262755] | 92 | –
O=C(c1ccco1)N1CCC(n2cnc3cccnc32)CC1 [CBK283939] | 91.6 | –
C[C@]12CN(CCc3ccccc3)C[C@H]1NC(=O)c1ccccc1C2=O [CBK284704] | 90.3 | –
O=C(NCCCn1ccnc1)c1cc2c(ccc3ccccc32)oc1=O [CBK263543] | 86 | –
NC(=O)COc1ccc(CNc2ccc(Oc3ccccc3)cc2)cc1Cl [CBK269584] | 89.4 | –
COc1ccc([C@@]23CC[C@@H](NS(=O)(=O)c4ccc5ccccc5c4)C[C@@H]2N(C)CC3)cc1OC [CBK056848T] | 96.8 | –
CCCC(=O)N1CCCC1c1cc2n(n1)[C@@H](C(F)(F)F)C[C@@H](C)N2 (some centres unmarked) [CBK283003] | 92.4 | –
COc1ccnc(N2CCN(C(=O)C3(C#N)CCCCC3)CC2)n1 [CBK305739] | 92.2 | –
Cc1cc(COC(=O)Nc2ccc3nc(C)ccc3c2)cc(C)n1 [CBK200127] | 90.5 | –
O=C(O)CCCC(=O)N1N=C(c2cccs2)CC1c1cn(-c2ccccc2)nc1-c1ccccc1 (centres unmarked) [CBK296124] | 90.3 | –
O=[N+]([O-])c1cccc(S(=O)(=O)NCCCn2ccnc2)c1 [CBK266676] | 91.1 | –
Cc1cc(C(=O)N2CCC(Cc3ccccc3-c3ccccc3)(C(=O)N(C)C)CC2)cs1 [CBK285676] | 116 | –
CSCCN1CCC2(CC1)CN(CC(N)=O)c1ccccc12 [CBK126801] | 92.9 | –
O=C(NCCCn1ccnc1)Nc1cccc(Cl)c1 [CBK265458] | 93.9 | –
O=C(c1ccc2[nH]ccc2c1)N1CCC2(CCN(Cc3ccccc3)C2)C1 (centres unmarked) [CBK137146] | 98.5 | –
CCNC(=O)C1(Cc2ccccc2-c2cccnc2)CCOCC1 [CBK285218] | 103 | –
NCC1OCCc2ccccc21 (centres unmarked) [CBK027717] | 108 | –
CC(C)CCc1csc(C2CN3CCCC3CO2)n1 (centres unmarked) [CBK304266] | 89.9 | –
NC(=O)c1cccc(-c2cnc(N)c(NCc3ccco3)n2)c1 [CBK063660] | 116 | –
O=C1c2ccccc2C(=O)N1CN(CCc1ccc(Cl)cc1)CN1C(=O)c2ccccc2C1=O [CBK225934] | 90.8 | –
COc1ccc(Oc2nccc(N3CCCN(CCCO)CC3)n2)cc1OC [CBK084158] | 93.5 | –
CC(N(C)S(=O)(=O)c1ccc(-n2ncc(Cl)c(Cl)c2=O)cc1)C(C)(C)C (centres unmarked) [CBK304544] | 73.9 | –

SMILES | viability at 28.5 h, 10 µM [%] | viability at 28.5 h, 10 µM (bulk resorufin, single well) [%]
CN1CCCN(c2nccnc2-c2cccs2)CC1 [CBK088823] | 98.5 | –
NC(=O)COc1ccccc1OCC(N)=O [CBK261032] | 87.5 | –
COc1ccc(OC)c(-n2c(=O)[nH]c3ccccc3c2=O)c1 [CBK287825] | 110 | –
Cc1nc2c(c(=O)[nH]1)CN(Cc1cccc(Oc3ccccc3)c1)CC2 [CBK283951] | 104 | –
COCC1(C(=O)N2CC(=O)N(c3ccc(Cl)cc3)CC2C)CCC1 (centres unmarked) [CBK306674] | 89.2 | –
COc1ccc(CN2CC=C(c3ccc(F)cc3)CC2)cc1OCc1ccccc1 [CBK261853] | 96.1 | –
COc1ccc(-c2c(-c3ccc(F)cc3)[nH]c3[nH]c(=O)[nH]c(=O)c23)cc1 [CBK288232] | 111 | –
CCc1nn(CC(=O)N(CC)CC)c(=O)c2cc3ccsc3n12 [CBK284132] | 88.2 | –
CCN1CCC(NC(=O)CSc2nc3ccccc3n2CC(C)C)CC1 [CBK304995] | 106 | –
Clc1ccc(-c2nn[nH]n2)c(Cl)c1 [CBK018932] | 89.7 | –
COC(=O)c1ccc(Cn2cc(NC(=O)NCCc3cccs3)cn2)o1 [CBK043825] | 82.4 | –
CCN1CC2(CCN(CC(N)=O)CC2)c2ccccc21 [CBK131485] | 107 | –
O=C(CSc1nnc(-c2cccnc2)o1)Nc1ccccc1 [CBK287742] | 82.6 | –
CC(C)C1OC(NCc2ccccc2Cl)=NC1=O (centres unmarked) [CBK070344] | 95.1 | –
CCN(C(=O)c1ccncc1)C(CC1CCCCC1)c1ccccc1 (centres unmarked) [CBK061674] | 86.9 | –
O=C(CC(CN1CCN(Cc2ccccn2)CC1)C(=O)O)Nc1ccc(F)cc1 (centres unmarked) [CBK286800] | 86.8 | –
Cc1noc(C)c1CC(=O)NC(C)c1nc2ccccc2s1 (centres unmarked) [CBK281467] | 107 | –
COC(=O)c1ccsc1NS(=O)(=O)c1ccccc1 [CBK026667] | 88.7 | –
Cc1c(NC(=O)Nc2ccccc2)sc(=S)n1C [CBK027434] | 90.6 | –
COc1ccc(C(=O)N2CCN(c3ncnc4onc(C)c34)CC2)cc1 [CBK304372] | 93.5 | –
O=C(O)C1(Oc2ccc3ncccc3c2)CCN(CC2CCOC2)CC1 (centres unmarked) [CBK307336] | 93.2 | –
CCc1ccc(C(=O)Nc2ccc(NC(C)=O)cc2C(F)(F)F)cc1 [CBK295202] | 84.1 | –
COc1cc(C(=O)Nc2ccccc2C(=O)N2CCN(C)CC2)cc(OC)c1OC [CBK269803] | 88.5 | –

SMILES | viability at 28.5 h, 10 µM [%] | viability at 28.5 h, 10 µM (bulk resorufin, single well) [%]
CCNc1nnc(SCCC(=O)N2CCN(c3ccc(F)cc3)CC2)s1 [CBK305058] | 100 | –
Cc1nnnn1C(Cc1cccc(F)c1)C(=O)N1CC(C)CC(C)C1 (centres unmarked) [CBK298262] | 96.3 | –
CCNC(=O)N[C@H]1C[C@@H](Cc2cc(CN(C)C)on2)C1(C)C [CBK289310] | 105 | –
CN1CCN(Cc2c(O)ccc3cc(-c4ccc(F)cc4)c(=O)oc23)CC1 [CBK267976] | 111 | –
O=C(CCn1cnc2ccccc2c1=O)Nc1ccc(S(=O)(=O)N2CCCC2)cc1 [CBK267642] | 93 | –
CCOc1cc(C(=S)N2CCOCC2)ccc1OCc1ccccc1 [CBK027466] | 99.1 | –
Cc1cc(/C=C2\SC(=O)N(CC(=O)Nc3ccccc3F)C2=O)c(C)n1-c1cccnc1 [CBK264770] | 95.5 | –
Cc1nc(C2CCCN(C(=O)c3ccncc3)C2)c2sccn12 (centres unmarked) [CBK285199] | 90.8 | –
Cc1cc(C(=O)NCc2cccnc2N(C)C2CCCCC2)nn1C [CBK306577] | 69.6 | –
CN1CCN(c2ccc(NC(=S)NC(=O)c3cc4ccccc4o3)cc2)CC1 [CBK266240] | 95.5 | –
CS(=O)(=O)Nc1ccc2c(O)c(C(=O)NCc3ccc(Cl)cc3)c(=O)[nH]c2c1 [CBK017559] | 88.9 | –
O=C1S/C(=C/c2ccc(Cl)cc2)C(=O)N1c1ccc(F)cc1 [CBK113265] | 102 | –
COCC(=O)N1CCN(C(=O)N2CCOCC2)C[C@@H]1C(=O)OC [CBK289613] | 109 | –
CC(=O)NCCN1CC[C@H]2CN(C(=O)c3cc(C)on3)CC[C@H]2CC1=O [CBK288785] | 103 | –
CN1CCC(N(C)C(=O)NCCc2c[nH]c3ccccc23)C1 (centres unmarked) [CBK156012] | 85.4 | –
O=C(O)c1cc(S(=O)(=O)Nc2cccc(-c3cnco3)c2)c(F)cc1Cl [CBK067126] | 90.5 | –
O=[N+]([O-])c1ccc(C(O)CNC(=S)Nc2ccccc2)cc1 (centres unmarked) [CBK261086] | 99.8 | –
O=c1[nH]c2ncc(-c3cccc4ncccc34)nc2n1CCCO [CBK065060] | 104 | –
O=C(Nc1n[nH]c2ccccc12)c1ccccc1 [CBK017993] | 90.1 | –
CCN(CC)CC(=O)Nc1ccc(Br)cc1C(=O)c1ccccc1 [CBK262983] | 109 | –
